# Measured values as given in US20130165368A1, “ANTIMICROBIAL COMPOUNDS” (priority 2010, published 2013).
# How the values were obtained:
# Assay type in all cases: cell-based
# Staphylococcus aureus = assay: MIC agar dilution, micro-organism 13 (6571); details: Staphylococcus aureus 6571
# Procedure: (§1) Throughout the period of testing the microbial strains were subcultured and incubated for 18-20 hours at 37° C. on a weekly basis. Horse blood agar plates were used to sustain the micro-organisms both prior to and throughout testing. The alkoxylated alkanols listed in Table II below were obtained (these are obtainable from Sigma-Aldrich Company Ltd, Dorset, England), each having a GC purity of at least 97%.
# (§2) Molar equivalent concentrations were used to allow comparison between compounds of differing molecular mass. Due to weighing difficulties, any compound in solid form was melted in a water bath prior to dilution. To make ten-times strength concentrations, which takes into account agar dilution, 0.0352 mmol of each compound was weighed into plastic universal bottles and 4 mL of sterile distilled water (SDW) was added. To produce a homogenous emulsion the universals were vortexed; once achieved the emulsions were serial diluted by adding 2 mL to 2 mL of SDW.
# (§3) Myristyl alcohol and lauryl alcohol were re-weighed and dissolved in 25 μL of the polar solvent 1-methyl-2-pyrrolidone (M6762; Sigma-Aldrich) in sterile glass universals due to an inability to achieve an even suspension. To maintain an even emulsion in the presence of SDW 37.5 μL of the non-ionic detergent Tween 20 (P1379, Sigma-Aldrich) was also added. 3.9375 mL of SDW was added to these, to create a 4 mL volume; they were vortexed and diluted as before.
# (§4) For every 100 mL of Isosensitest agar (IST) (CM0471; Oxoid, Basingstoke, England), 3.1 g of the IST powder was added to 100 mL SDW (as per manufacturer's instructions) and sterilised for 15 minutes at 121° C. Once sterilised, the molten agar was cooled to 50° C. in a water-bath. Subsequently 4.8 g of CCEY powder (BC2160; Bioconnections, Wetherby, England), also known as Brazier's medium, was added to 100 mL SDW for every 100 mL of agar needed. This was then sterilised for 15 minutes at 121° C. Once sterilised the molten agar was cooled to 50° C. in a water-bath and 4 mL of egg-yolk emulsion (S2073; TCS Biosciences Ltd, Buckingham, United Kingdom) and 1 mL of lysed defibrinated horse blood (HB035; TCS Biosciences Ltd, Buckingham, United Kingdom) were also added for every 100 mL needed. Horse blood lysis is achieved by dilution to half concentration with SDW; when fully lysed the mixture will turn dark red in colour.
# (§5) 18 mL agar was added to each universal and then poured into sterile Petri dishes. This step creates a 1/10 dilution resulting in agar plates of the required strength. Control plates for each set of strains were created by adding 18 mL of agar to 2 mL of SDW.
# (§6) Suspensions of each bacterial species were prepared with a density equal to that of a 0.5 McFarland standard using a densitometer. All suspensions were made using sterile distilled water and fresh 18-20 hour cultures. As a 0.5 McFarland standard contains 1.5×10^8 CFU/mL and the multipoint inoculators applies 1 μL spots of liquid, each bacterial suspension was diluted 1/15 (20 μL suspension to 280 μL sterile distilled water).
# (§7) Bacterial suspensions were prepared from fresh 18-24 hour cultures as previously described. 1 μL of each strain was inoculated onto all 100 agar plates containing a different chemical concentration and the 2 control plates. This was done using a multipoint inoculator which inoculates 20 strains per plate. All plates were incubated for 22 hours at 37° C. in aerobic conditions.
# (§8) Each plate was examined for bacterial growth after 22 and 48 hours, with each being incubated in between examinations. A positive result was recorded as growth of ≧10 colonies. A negative result was recorded as growth of <10 colonies as this is equivalent to 99.9% inhibition. The lowest concentration of chemical that inhibited growth was recorded as the MIC. The results are recorded in Table IV below, where the numbers are quoted in mmol/L. […]
# Steptococcus pyogenes = assay: MIC agar dilution, micro-organism 11 (8306); details: Steptococcus pyogenes 8306
# Procedure: as §1, §2, §3, §4, §5, §6, §7, §8
# [1] = system: Staphylococcus epidermidis; assay: MIC agar dilution, micro-organism 14 (11047); details: Staphylococcus epidermidis 11047
# Procedure: as §1, §2, §3, §4, §5, §6, §7, §8
# Bacillus subtilis = assay: MIC agar dilution, micro-organism 18 (9372); details: Bacillus subtilis 9372
# Procedure: as §1, §2, §3, §4, §5, §6, §7, §8
# Candida glabrata = assay: MIC agar dilution, micro-organism 20 (3943); details: Candida glabrata 3943
# Procedure: as §1, §2, §3, §4, §5, §6, §7, §8
# Enterococcus faecium = assay: MIC agar dilution, micro-organism 16 (7171); details: Enterococcus faecium 7171
# Procedure: as §1, §2, §3, §4, §5, §6, §7, §8
# Yersinia enterocolitica = assay: MIC agar dilution, micro-organism 8 (11176); details: Yersinia enterocolitica 11176
# Procedure: as §1, §2, §3, §4, §5, §6, §7
# (§9) Each plate was examined for bacterial growth after 22 and 48 hours, with each being incubated in between examinations. A positive result was recorded as growth of ≧10 colonies. A negative result was recorded as growth of <10 colonies as this is equivalent to 99.9% inhibition. The lowest concentration of chemical that inhibited growth was recorded as the MIC. The results are recorded in Table IV below, where the numbers are quoted in mmol/L.
# (§10) Further experiments have also been conducted to determine the MIC of a number of other compositions as follows. […]
# Enterococcus faecalis = assay: MIC agar dilution, micro-organism 17 (775); details: Enterococcus faecalis 775
# Procedure: as §1, §2, §3, §4, §5, §6, §7, §8
# Providencia rettgeri = assay: MIC agar dilution, micro-organism 3 (7475); details: Providencia rettgeri 7475
# Procedure: as §1, §2, §3, §4, §5, §6, §7, §8
# Candida albicans = assay: MIC agar dilution, micro-organism 19 (90028); details: Candida albicans 90028
# Procedure: as §1, §2, §3, §4, §5, §6, §7, §8
# Pseudomonas aeruginosa = assay: MIC agar dilution, micro-organism 7 (10662); details: Pseudomonas aeruginosa 10662
# Procedure: as §1, §2, §3, §4, §5, §6, §7, §9, §10
# Acinetobacter baumannii = assay: MIC agar dilution, micro-organism 10 (19606); details: Acinetobacter baumannii 19606
# Procedure: as §1, §2, §3, §4, §5, §6, §7, §9, §10
# Escherichia coli = assay: MIC agar dilution, micro-organism 1 (10418); details: Escherichia coli 10418
# Procedure: as §1, §2, §3, §4, §5, §6, §7, §8
# Serratia marcescens = assay: MIC agar dilution, micro-organism 5 (10211); details: Serratia marcescens 10211
# Procedure: as §1, §2, §3, §4, §5, §6, §7, §9, §10
# Burkholderia cepacia = assay: MIC agar dilution, micro-organism 9 (1222); details: Burkholderia cepacia 1222
# Procedure: as §1, §2, §3, §4, §5, §6, §7, §9, §10
# [2] = system: Staphylococcus aureus (MRSA); assay: MIC agar dilution, micro-organism 12 (11939); details: Staphylococcus aureus (MRSA) 11939
# Procedure: as §1, §2, §3, §4, §5, §6, §7, §8
# Enterobacter cloacae = assay: MIC agar dilution, micro-organism 4 (11936); details: Enterobacter cloacae 11936
# Procedure: as §1, §2, §3, §4, §5, §6, §7, §9, §10
# Listeria monocytogenes = assay: MIC agar dilution, micro-organism 15 (11994); details: Listeria monocytogenes 11994
# Procedure: as §1, §2, §3, §4, §5, §6, §7, §8
# Klebsiella pneumoniae = assay: MIC agar dilution, micro-organism 2 (9528); details: Klebsiella pneumoniae 9528
# Procedure: as §1, §2, §3, §4, §5, §6, §7, §9, §10
# Salmonella typhimurium = assay: MIC agar dilution, micro-organism 6 (74); details: Salmonella typhimurium 74
# Procedure: as §1, §2, §3, §4, §5, §6, §7, §9, §10
smiles,measurement,setting,value
"CCCCCCCCCCCCCCCCOCCO [C16E1, ceteth-1]",MIC,Staphylococcus aureus; 22 hrs,>880 µM
same,MIC,Staphylococcus aureus; 48 hrs,>880 µM
same,MIC,Steptococcus pyogenes; 22 hrs,>880 µM
same,MIC,Steptococcus pyogenes; 48 hrs,>880 µM
same,MIC,[1]; 22 hrs,>880 µM
same,MIC,[1]; 48 hrs,>880 µM
same,MIC,Bacillus subtilis; 22 hrs,>880 µM
same,MIC,Bacillus subtilis; 48 hrs,>880 µM
same,MIC,Candida glabrata; 22 hrs,880 µM
same,MIC,Candida glabrata; 48 hrs,880 µM
same,MIC,Enterococcus faecium; 22 hrs,>880 µM
same,MIC,Enterococcus faecium; 48 hrs,>880 µM
same,MIC,Yersinia enterocolitica; 22 hrs,>880 µM
same,MIC,Yersinia enterocolitica; 48 hrs,>880 µM
same,MIC,Enterococcus faecalis; 22 hrs,>880 µM
same,MIC,Enterococcus faecalis; 48 hrs,>880 µM
same,MIC,Providencia rettgeri; 22 hrs,>880 µM
same,MIC,Providencia rettgeri; 48 hrs,>880 µM
same,MIC,Candida albicans; 22 hrs,>880 µM
same,MIC,Candida albicans; 48 hrs,>880 µM
same,MIC,Pseudomonas aeruginosa; 22 hrs,>880 µM
same,MIC,Pseudomonas aeruginosa; 48 hrs,>880 µM
same,MIC,Acinetobacter baumannii; 22 hrs,>880 µM
same,MIC,Acinetobacter baumannii; 48 hrs,>880 µM
same,MIC,Escherichia coli; 22 hrs,>880 µM
same,MIC,Escherichia coli; 48 hrs,>880 µM
same,MIC,Serratia marcescens; 22 hrs,>880 µM
same,MIC,Serratia marcescens; 48 hrs,>880 µM
same,MIC,Burkholderia cepacia; 22 hrs,>880 µM
same,MIC,Burkholderia cepacia; 48 hrs,>880 µM
same,MIC,[2]; 22 hrs,>880 µM
same,MIC,[2]; 48 hrs,>880 µM
same,MIC,Enterobacter cloacae; 22 hrs,>880 µM
same,MIC,Enterobacter cloacae; 48 hrs,>880 µM
same,MIC,Listeria monocytogenes; 22 hrs,>880 µM
same,MIC,Listeria monocytogenes; 48 hrs,>880 µM
same,MIC,Klebsiella pneumoniae; 22 hrs,>880 µM
same,MIC,Klebsiella pneumoniae; 48 hrs,>880 µM
same,MIC,Salmonella typhimurium; 22 hrs,>880 µM
same,MIC,Salmonella typhimurium; 48 hrs,>880 µM
